Reference: patent publication US9815790B2, “Chemically modified quinoline and quinolone derivatives useful as CB-1 inverse agonists” (Janssen Pharmaceutica NV, priority 2015, dated 2017)

Experiments:
[1] = molecular target: CB-2 receptor (Human CB2R, Cannabinoid receptor 2) (Homo sapiens (Human), UniProt P34972); assay: cAMP HTRF assay, CB-2 in stably transfected HEK-293 cells; type: cell-based; settings: 250 nM Forskolin, mean where tested more than once, read-out: CB2 EC50
Excerpt: (§1) CB1 and CB2 receptors are Gi-coupled GPCR. Activation of CB1 and CB2 receptors results in a decrease in cAMP production. An inverse agonist of the CB1 or CB2 receptor results in the opposite effect, an increase of cAMP production. The principle of this assay is based on HTRF® technology (Homogeneous Time-Resolved Fluorescence). The method is a competitive immunoassay between native cAMP produced by cells and the cAMP labeled with the fluorophore d2. The tracer binding is quantified by a Mab anti-cAMP labeled with Eu3+TBP-NHS Cryptate (supplied as part of the assay kit). The specific signal (i.e. energy transfer) is inversely proportional to the concentration of cAMP in the standard or sample.
(§2) Human CB (Cannabinoid receptor 1) was stably transfected in HEK-293 cells (DiscoveRx, cat: 93-0200C1). Human CB2R (Cannabinoid receptor 2) was stably transfected in HEK-293 cells (DiscoveRx, cat: 93-0201C1). Cell cultures were maintained in media: DMEM (Invitrogen Cat#12430-054) supplemented with 10% HI FBS (Invitrogen Cat#16140-071), 1% L-glutamine (Invitrogen Cat#25030-081), 0.2 mg/mL Hygromycin B (Invitrogen Cat#10687-010), 600 μg/mL G418 (Invitrogen Cat#10131-035), and 1× Penn/Strep (Invitrogen 15140-122). After cell expansion, aliquots were cryo-stored in media containing 5% DMSO (Pierce Cat#20684).
(§3) One day prior to experiments media was warmed to 37° C. and the cryo-stored cells were thawed in a 37° C. water bath. The cells were then added to media (10× volume) and the mixture was centrifuged at 1000 RPM for 5 min. The supernate was removed and the cells were re-suspended in media. A sample of the cell suspension was evaluated on a Cedex XS automated cell counter (Innovatis Systems) to determine viable cells/mL. Additional media was added to the cells to achieve a final cell density of 4E5 cells/mL. The cells were then plated into 384 well PDL white solid bottom plates (Greiner, Cat#781945) at 20 μL per well using a Multidrop (Thermo Scientific). Cells were removed from Row P (location of cAMP standards). Two columns of cells were plated into a clear bottom 384 well PDL coated plate (Greiner, Cat#781944) to view confluence the day of the assay. The cell plates were lidded and stored for 15 minutes in a hood, then transferred to an incubator (37° C., 5% CO2, 95% humidity) overnight.
(§4) Test compounds were solubilized in DMSO at 10 mM or for pegylated compounds 4 or 1 mM. DMSO was added to all wells of 384 well V bottom polystyrene plate (Greiner, Cat#781280) except to columns 1 and 13, rows O and P and wells M13-M23 and N13-N23. Test compounds (60 μL, 10 mM or 4 mM or 1 mM) were added to Column 1 and 13 (A1 through N1 and A13 through L13). Test compounds were serially diluted ⅓ by transferring and mixing 20 μL sample with 40 μL DMSO.
(§5) DMSO (40 μL) was added to wells of 384 well V bottom polystyrene plate: O2 through O11, M14 through M23, N14 through N23, and O14 through O23. AM630 (also known as [6-iodo-2-methyl-1-[2-(4-morpholinyl)ethyl]-1H-indol-3-yl](4-methoxyphenyl)-methanone, Cayman Chemical, Cat#10006974) (60 μL, 10 mM) was added to 01; and 1-(2,4-dichlorophenyl)-7-[(4-fluorophenyl)methylene]-4,5,6,7-tetrahydro-N-1-piperidinyl-1H-indazole-3-carboxamide (60 μL, 10 mM) was added to N13. The control was serially diluted ⅓ by transferring and mixing 20 μL sample with 40 μL DMSO. This process resulted 11 doses per control, 10 mM to 0.17 μM.
(§6) Cells plated the day prior to the assay in clear bottom plates were viewed on an inverse microscope to ensure confluency in the range of 60-75%. […]

[2] = molecular target: CB-1 receptor (Human Cannabinoid receptor 1) (Homo sapiens (Human), UniProt P21554); assay: cAMP HTRF assay, CB-1 inverse agonism in stably transfected HEK-293 cells; type: cell-based; settings: 250 nM Forskolin, mean where tested more than once, read-out: CB1 EC50
CB-1 receptor (Human Cannabinoid receptor 1), sequence (P21554 whole entry): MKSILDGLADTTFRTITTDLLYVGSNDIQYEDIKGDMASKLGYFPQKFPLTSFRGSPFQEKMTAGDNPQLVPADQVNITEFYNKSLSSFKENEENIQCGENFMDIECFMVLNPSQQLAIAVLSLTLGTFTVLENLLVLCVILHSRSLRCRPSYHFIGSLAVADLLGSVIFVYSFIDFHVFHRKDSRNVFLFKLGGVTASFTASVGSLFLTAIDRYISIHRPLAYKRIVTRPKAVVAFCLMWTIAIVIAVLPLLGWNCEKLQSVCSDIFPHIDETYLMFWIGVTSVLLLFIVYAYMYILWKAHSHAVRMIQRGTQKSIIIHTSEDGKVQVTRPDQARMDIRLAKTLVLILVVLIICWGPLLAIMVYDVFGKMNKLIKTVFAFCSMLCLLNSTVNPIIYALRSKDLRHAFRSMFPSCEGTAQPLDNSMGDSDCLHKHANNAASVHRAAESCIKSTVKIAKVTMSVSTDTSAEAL
Excerpt: as §1, §2, §3, §4, §5, §6

CB-2 receptor (Human CB2R, Cannabinoid receptor 2), sequence (P34972 whole entry): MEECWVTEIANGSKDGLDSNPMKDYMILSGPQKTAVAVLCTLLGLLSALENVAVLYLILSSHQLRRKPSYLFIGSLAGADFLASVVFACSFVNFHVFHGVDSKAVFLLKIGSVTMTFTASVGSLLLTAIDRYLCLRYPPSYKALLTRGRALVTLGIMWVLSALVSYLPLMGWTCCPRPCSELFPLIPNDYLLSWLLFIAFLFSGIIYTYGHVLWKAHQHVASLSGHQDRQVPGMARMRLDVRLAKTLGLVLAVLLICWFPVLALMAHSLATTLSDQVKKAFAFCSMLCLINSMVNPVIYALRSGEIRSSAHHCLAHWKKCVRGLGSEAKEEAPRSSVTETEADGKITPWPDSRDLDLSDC

EC50 [1] [µM] | EC50 [2] [µM] | SMILES
0.74 | 0.077 | O=C(O)CCOCCOCCOCCOCCOCCOCCOCCOCCOCCOCCOCCOCCOc1cc(C(c2ccc(Cl)cc2)c2ccc(Cl)cc2)cc2c(NC3CCN(S(=O)(=O)C(F)(F)F)CC3)ccnc12 [Cpd 17]
4.06 | 0.24 | COCCOCCOCCOCCOCCOCCOCCOCCOCCOCCOCCOCCNC(=O)OCc1ccc(OCCOCCOCCOCCOCCOCCOc2cc(NC3CCN(S(=O)(=O)C(F)(F)F)CC3)c3cc(C(c4ccc(Cl)cc4)c4ccc(Cl)cc4)ccc3n2)cc1 [Cpd 13]
5.4 | 0.094 | NNC(=O)CCOCCOCCOCCOCCOCCOCCOCCOCCOCCOCCOCCOCCNC(=O)OCCOCCOCCOc1cc(NC2CCN(S(=O)(=O)C(F)(F)F)CC2)c2cc(C(c3ccc(Cl)cc3)c3ccc(Cl)cc3)ccc2n1 [Cpd 12]
> 10 | 0.052 | O=S(=O)(N1CCC(Nc2cc(OCCOCCOCCO)nc3ccc(C(c4ccc(Cl)cc4)c4ccc(Cl)cc4)cc23)CC1)C(F)(F)F [Cpd 8]
3.3 | 0.047 | COCCOCCOc1ccc(Nc2cc(=O)[nH]c3ccc(C(c4ccc(Cl)cc4)c4ccc(Cl)cc4)cc23)cc1 [Cpd 20, 6-[bis(4-chlorophenyl)methyl]-4-([4-[2-(2-methoxyethoxy)ethoxy]phenyl]amino)quinolin-2-ol]
3 | 0.019 | COCCOCCOCCOCCOCCOCCOCCOCCOCCOCCOCCOCCNC(=O)CCCCCOc1cc(NC2CCN(S(=O)(=O)C(F)(F)F)CC2)c2cc(C(c3ccc(Cl)cc3)c3ccc(Cl)cc3)ccc2n1 [Cpd 6]
3.11 | 0.061 | O=S(=O)(N1CCC(Nc2cc(OCCOCCOCCOCCOCCOCCOc3ccc(CO)cc3)nc3ccc(C(c4ccc(Cl)cc4)c4ccc(Cl)cc4)cc23)CC1)C(F)(F)F [Cpd 11]
> 10 | 0.39 | COCCOCCOCCOCCn1c(=O)cc(NC2CCN(S(=O)(=O)C(F)(F)F)CC2)c2cc(C(c3ccc(Cl)cc3)c3ccc(Cl)cc3)ccc21 [Cpd 21]
> 10 | 0.15 | O=S(=O)(N1CCC(Nc2cc(OCCOCCOCCOCCOCCOCCO)nc3ccc(C(c4ccc(Cl)cc4)c4ccc(Cl)cc4)cc23)CC1)C(F)(F)F [Cpd 9]
